Data on eight compounds can be found in PMC12366525, “Characterization of allosteric modulators that disrupt androgen receptor co-activator protein-protein interactions to alter transactivation–Drug leads for metastatic castration resistant prostate cancer” (SLAS discovery : advancing life sciences R & D, 2023).

Where two headings read alike, the source gives them in different places.

Broadly, the IC50 is the concentration needed to halve the response being measured. A word on the GI50: it is the concentration that inhibits growth by half.

Holding throughout (format): cell-based
For experiment [1], the target named is T1, AR-LBD and TIF2 (Homo sapiens, UniProt P10275).
T1 construct: AR-LBD amino acids 658–919 expressed as a fusion protein with Gal4-DBD; expressed in transfected cells; host or cells: HEK 293
T1 sequence (P10275 658-919): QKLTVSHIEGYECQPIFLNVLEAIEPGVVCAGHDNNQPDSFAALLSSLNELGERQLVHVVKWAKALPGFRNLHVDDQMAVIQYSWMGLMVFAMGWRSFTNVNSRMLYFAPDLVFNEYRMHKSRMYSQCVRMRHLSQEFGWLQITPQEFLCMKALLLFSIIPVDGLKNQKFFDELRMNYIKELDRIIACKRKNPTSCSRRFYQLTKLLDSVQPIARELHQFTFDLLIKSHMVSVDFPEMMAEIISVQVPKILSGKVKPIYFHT
The experiment is described as follows: TIF2 mammalian 2-hybrid (M2H) assay. The conditions noted are these: for IC50: HEK 293 cells, 25 nM DHT, 27 h compound exposure, read-out: M2H AR-TIF2 CoA Recruitment IC50. The text has this:
(§1) The 5xGAL4-TATA-luciferase reporter plasmid was a gift from Dr. Richard Maurer from the Oregon Health and Science University, and constructs pGAL4-hAR-658–919 (AR-LBD amino acids 658–919 expressed as a fusion protein with Gal4-DBD), pVP16-SRC1 (full--length SRC1 expressed as a fusion with VP16 activation domain) and pVP16-Empty vector were kindly provided to us by Dr. Elizabeth Wilson, from UNC Chapel Hill. pVP16-TIF2 was generated as described previously. HEK 293 cells were transiently co-transfected with 5 ng of pGal4-AR-LBD, 10 ng of either pVP16-TIF2 or pVP16-SRC1, and 20 ng of the 5xGal4-TATA-Luc reporter as described previously. HEK 293 cells were bulk co-transfected with the three plasmids that had been individually incubated with Fugene 6 at a 3:1 ratio for 25 min at room temperature (RT) in serum free media (SFM) and then combined with HEK 293 cells that were suspended in DMEM (Cellgro10013CV) with 2 mM L-glutamine (Invitrogen) that was supplemented with 10% fetal bovine serum, and 5000 cells in a volume of 40 μL were seeded into the wells of white opaque 384-well assay plates (Greiner Bio-one, #781080) and cultured overnight at 37 °C, 5% CO2, and 95% humidity. […] 25 μL of BrightGlo® reagent was added to the plate and the relative luminescence units (RLUs) were captured on a SpectraMax M5e microtiter plate reader (Molecular Devices, LLC, San Jose, CA).

The subject of experiment [2] is LNCaP cells. The experiment is described as follows: Prostate cancer cell line growth inhibition assay, LNCaP. The conditions noted are these: 72 h, read-out: LNCap GI50 (AR+). The method, then:
The PC-3, DU-145, LNCaP, C4–2, and 22Rv1 PC cell line growth inhibition assays have been described previously. On day 1, each PC cell line was harvested, counted, and seeded into two 384-well assay plates, a time zero (T0) and a time 72 h (T72) plate. PC cell lines were all seeded at 1000 cells per well in 45 μL of tissue culture media in uncoated white clear bottom 384-well assay plates (VWR, # 82050–076) using a Matrix electronic multichannel pipette (Thermo Fisher Scientific, Waltham, MA) and cultured overnight at 37 °C, 5% CO2, and 95% humidity. On day 2, 25 μL of the Cell Titer Glo (CTG) (Promega Corporation, Madison, WI) detection reagent was dispensed into the wells of the T0 assay plate using a Matrix electronic multichannel pipette, and the RLUs were captured on the SpectraMax M5e (Molecular Devices LLC, Sunnyvale, CA) microtiter plate reader. Also on day 2, 5 μL of compounds were transferred into the test wells of the T72 384-well assay plates which were returned to the incubator for 72 h. Control wells received DMSO alone. On day 5, 25 μL of the CTG detection reagent was dispensed into the wells of the T72 assay plate using a Matrix electronic multichannel pipette, and the RLU’s were captured on the SpectraMax M5e microtiter plate reader platform.
In 384-well assays, DMSO minimum (n = 32) and maximum (n = 32) plate control wells were utilized to calculate signal-to-background ratios (S:B) and Z’-factor coefficient assay performance quality control statistics, and to normalize the signals of compound treated wells and to represent 0% and 100% respectively. For the 96-well AR-LBD H^3-DHT radioligand binding assay, eight minimum and maximum plate control wells were utilized to normalize the data. For the PC cell line growth inhibition assays we used the DMSO control data from the T0 and T72 assay plates to assess the dynamic range of the T0 to T72 cell growth, and to calculate S:B ratios and Z’-factor coefficient statistics for the assay signal window (T0 to T72). To normalize the 72 h compound exposure PC growth inhibition data, the signals from the compound treated wells were processed and expressed as% of the T72 DMSO plate controls. IC50 and GI50 values for each of the bioassays were calculated using Graph-Pad Prism 9 software to plot and fit data to curves using the Sigmoidal dose response variable slope equation Y = Bottom + [Top-Bottom]/ [1 + 10^^(LogEC50-X)*HillSlope].

Experiment [3] addresses T2, AR-LBD and SRC1 (Homo sapiens, UniProt P10275).
T2 construct: AR-LBD amino acids 658–919 expressed as a fusion protein with Gal4-DBD; expressed in transfected cells; host or cells: HEK 293
T2 sequence (P10275 658-919): T1 sequence (P10275 658-919)
Nature of the experiment: SRC1 mammalian 2-hybrid (M2H) assay. The following applies: HEK 293 cells; 25 nM DHT; 27 h compound exposure; read-out: M2H AR-SRC1 CoA Recruitment IC50.
Text: as §1

Consider `Cc1ccccc1-c1cc(O)c2c(c1)CN(c1nc(C(N)=O)cs1)CCO2` [S1–1], for which the 50% inhibitory concentration (IC50) in experiment [1] worked out at 5.77 µM; in experiment [3] it was 3.57 µM. In addition, in experiment [2] (Homo sapiens, LNCaP), the 50% growth inhibitory concentration (GI50) was 28.9 µM.
As for `Cc1ccccc1-c1cc(O)c2c(c1)CN(c1nccs1)CCO2` [S1–3], the IC50 in experiment [1] stood at 7.46 µM; in experiment [3] it was 5.19 µM. In addition, in experiment [2], the GI50 came out at 43.4 µM.
For the compound `Cc1nsc(NC(=O)N2CCC(Sc3ccccc3C)CC2)n1` [S2–6], the figures for the IC50 in experiment [1] and in experiment [3] were 0.08 µM and 0.46 µM, respectively. Besides, in experiment [1] (M2H assays), the “CoA selectivity, lower IC50 for TIF2 than SRC1” value is reported as ~ 5 fold. Further, the 50% growth inhibitory concentration (GI50) in experiment [2] (Homo sapiens, LNCaP) came to 19.2 µM.
On to `Cc1c(-c2ccccc2F)[nH]c2ccc(CNC(=O)CCc3cn[nH]c3)cc12` [S3–11], for which the IC50 in experiment [1] came to 6.38 µM; in experiment [3], 4.79 µM. The GI50 in experiment [2] (Homo sapiens, LNCaP) was 7.41 µM.
Consider `Cc1c(-c2ccccc2F)[nH]c2ccc(CNC(=O)CCc3cnccn3)cc12` [S3–12], for which the figures for the IC50 in experiment [1] and in experiment [3] were 5.44 µM and 3.93 µM, respectively. Moreover, the GI50 in experiment [2] (Homo sapiens, LNCaP) was determined as 1.92 µM.
As to `CC(=O)NCCC(=O)NCc1ccc2[nH]c(-c3ccccc3F)c(C)c2c1` [S3–13], the IC50 in experiment [1] came to 18 µM; in experiment [3] it was 11.7 µM. Further, the GI50 in experiment [2] (Homo sapiens, LNCaP) turned out to be 67.2 µM.
For `Cc1c(-c2ccccc2F)[nH]c2ccc(CNC(=O)c3ccc(CO)o3)cc12` [S3–14] the same measures were 2.43 µM, 2.5 µM and 31.1 µM.
On to `Cc1c(-c2ccc(F)cc2)[nH]c2ccc(CNC(=O)c3ccc(CO)o3)cc12` [S3–15], for which the 50% inhibitory concentration (IC50) in experiment [1] was 3.32 µM; in experiment [3], 2.99 µM. In addition, in experiment [2] (Homo sapiens, LNCaP), the GI50 stood at 14 µM.
